Where a name gives a salt, the structure may show the parent alone. Read-outs that look alike come from different tables or passages of the source.
Key:
[1] = Storage stability (morphology and physicochemical characteristics); conditions: Vemurafenib obtained as per the present process
[2] = cited from earlier work; for Solubility in water: marketed/prior reported crystalline Form II, from EMEA scientific discussion of Zelboraf
[3] = European assessment report of Zelboraf; low solubility and permeability; cited from earlier work
Solubility in water = assay type: physicochemical; conditions: product as per the present invention

For `CCCS(=O)(=O)Nc1ccc(F)c(C(=O)c2c[nH]c3ncc(-c4ccc(Cl)cc4)cc23)c1F` [Vemurafenib, propane-1-sulfonic acid-{3-[5-(4-chlorophenyl)-1H-pyrrolo[2,3-b]pyridine-3-carbonyl]-2,4-difluoro-phenyl}-amide], which “Stable to handle and store without significant change in morphology and physicochemical characteristics” value [1] is on record?
Its value is “more than 6 months”.

And the “Solubility in aqueous media” value ([2]; background description of the drug substance)?
The value was “practically insoluble”.

What about the Solubility in water [2] of the same compound?
Its Solubility in water is under 0.1 µg/mL.

What about the “Biopharmaceutics Classification System class” value [3] of the same compound?
Its value is “Class IV”.

For `CCCS(=O)(=O)Nc1ccc(F)c(C(=O)c2c[nH]c3ncc(-c4ccc(Cl)cc4)cc23)c1F` [Form-SVM, propane-1-sulfonic acid-{3-[5-(4-chlorophenyl)-1H-pyrrolo[2,3-b]pyridine-3-carbonyl]-2,4-difluoro-phenyl}-amide], which Solubility in water (Solubility in water) is on record?
Its Solubility in water is over 1 µg/mL.

What about the solubility (Solubility in water; water) of the same compound?
The solubility was over 1 µg/mL.

What does the source list for `CCCS(=O)(=O)Nc1ccc(F)c(C(=O)c2c[nH]c3ncc(-c4ccc(Cl)cc4)cc23)c1F` [Form-II, propane-1-sulfonic acid-{3-[5-(4-chlorophenyl)-1H-pyrrolo[2,3-b]pyridine-3-carbonyl]-2,4-difluoro-phenyl}-amide]?
Solubility in water [2]: <0.1 µg/mL; Solubility in water ([2]; listed as Crystalline Vemurafenib (Form II)): < 0.1 µg/mL

For `CCCS(=O)(=O)Nc1ccc(F)c(C(=O)c2c[nH]c3ncc(-c4ccc(Cl)cc4)cc23)c1F` [Vemurafenib trifluoro methane sulfonic acid salt], which Solubility in water (Solubility in water) is on record?
Its Solubility in water is at least 1 µg/mL.

From patent publication US10414764B2, “Substantially pure vemurafenib and its salts” (SHILPA MEDICARE LIMITED, priority 2014, dated 2019)
